Here are results for 14 molecules from PubChem BioAssay (NCI).

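Results reflect a 48-hour exposure of cells in 96-well plates to compound at five concentrations. Abbreviation: GI50, concentration required for 50% inhibition of growth. TGI marks complete inhibition of growth.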

Some test systems named below: DMS 114 small cell lung; XF 498 CNS; HCC-2998 colon; HOP-18 NSCLC; COLO 205 colon; RXF 393 renal; DMS 273 small cell lung; HL-60(TB) leukemia; MDA-MB-231 breast; NCI/ADR-RES ovarian; LXFL 529 NSCLC; SNB-78 CNS; MDA-N; M19-MEL melanoma; 786-0 renal.
What all share (test): NCI-60 cell line screen, 48 h

As to `C#CCCCCC#CC1CCCC1C1=CC(=O)c2ccccc21` (configuration not stated), the TGI in the assay on DMS 114 small cell lung came to 6.97 µM; in the assay on XF 498 CNS, 20.8 µM; in the assay with HCC-2998 colon it was 25.2 µM; in the assay on HOP-18 NSCLC, 25 µM; in the assay on COLO 205 colon, 28.6 µM; in the assay with RXF 393 renal, 18.4 µM. For the same molecule, the values for the TGI in the assay on DMS 273 small cell lung and with HL-60(TB) leukemia were 11.9 µM and 3.93 µM, respectively.

In the case of `CN(C)CCNc1ccc2nnn3c4ccc(Cl)cc4c(=O)c1c23`, the TGI in the assay on MDA-MB-231 breast worked out at 25.7 µM; with NCI/ADR-RES ovarian, 15.9 µM; in the assay with LXFL 529 NSCLC, 19.2 µM; with XF 498 CNS, 23.8 µM; in the assay with HCC-2998 colon it was 23.4 µM; in the assay with SNB-78 CNS, 34.9 µM. Further, the TGI in the assay with COLO 205 colon came to 10.5 µM; with RXF 393 renal, 13.1 µM; with HL-60(TB) leukemia it was 19.9 µM; in the assay with MDA-N it was 16.9 µM; in the assay with M19-MEL melanoma, 15.1 µM; in the assay on 786-0 renal it was 15.6 µM.

For the molecule `N=C(N)SC1c2ccccc2-c2cc([N+](=O)[O-])ccc21` (configuration not stated), the TGI with MDA-MB-231 breast came to 23.6 µM; in the assay with NCI/ADR-RES ovarian, 16 µM; in the assay with HCC-2998 colon, 9.84 µM; with COLO 205 colon, 9.77 µM; with RXF 393 renal, 10.3 µM; in the assay with HL-60(TB) leukemia, 11.9 µM. Also, the TGI in the assay with MDA-N is 10.9 µM; in the assay on 786-0 renal it was 14.9 µM.

As for `O=[N+]([O-])/C=C/c1cccc(F)c1`, the TGI with MDA-MB-231 breast is 38.2 µM; in the assay with NCI/ADR-RES ovarian it was 35.2 µM; in the assay with HCC-2998 colon, 31.6 µM; with COLO 205 colon, 8.02 µM; with RXF 393 renal, 4.32 µM; with MDA-N, 14 µM.

Take `CC1(C)[C@@H]2C[C@H]1C(Cc1ccccc1C[C@H]1c3cc(-c4ccccn4)ncc3[C@H]3C[C@@H]1C3(C)C)c1cc(-c3ccccn3)ncc12` (some centres not stated): the TGI in the assay with MDA-MB-231 breast is greater than 68 µM; in the assay with NCI/ADR-RES ovarian, greater than 36.7 µM; in the assay on HCC-2998 colon, 39.8 µM; in the assay with COLO 205 colon it was greater than 100 µM; with RXF 393 renal, greater than 25.1 µM; in the assay on HL-60(TB) leukemia, 0.65 µM. This molecule gave a TGI in the assay with MDA-N greater than 100 µM.

As for `NC(Cc1ccc2oc3cc(=O)c4ccccc4c-3nc2c1)C(=O)O` (configuration not stated), the TGI in the assay on MDA-MB-231 breast is greater than 100 µM; in the assay with DMS 114 small cell lung it was 41.1 µM; in the assay with NCI/ADR-RES ovarian, greater than 100 µM; in the assay with LXFL 529 NSCLC it was greater than 100 µM; in the assay on HCC-2998 colon, 40.2 µM; in the assay with SNB-78 CNS, greater than 100 µM. In addition, the TGI in the assay with HOP-18 NSCLC is 77.7 µM; in the assay with COLO 205 colon it was 21.5 µM; with RXF 393 renal it was 99.8 µM; in the assay with DMS 273 small cell lung it was greater than 60.1 µM; in the assay with HL-60(TB) leukemia, 76.2 µM; in the assay on MDA-N it was 14.8 µM. The TGI in the assay with 786-0 renal was greater than 100 µM.

As for `Cc1ccc(NCCN(C)CC(C)O)c2c(=O)c3ccc(Cl)cc3sc12` (configuration not stated), in the assay on NCI/ADR-RES ovarian, the GI50 is 4.68 µM and the TGI was greater than 100 µM.

`CC(=O)O[C@H]1CC[C@]2(C)[C@H]3C(=O)C=C4[C@@H]5C[C@](C)(C(=O)N6CCCNCC6)CC[C@]5(C)CC[C@@]4(C)[C@]3(C)CC[C@H]2C1(C)C`: in the assay on RXF 393 renal, the GI50 was 1.66 µM and the TGI turned out to be 3.24 µM.

Regarding `C/C=C1/CN2CC[C@@H]3c4ccccc4N4[C@H](C(=O)OC)[C@H]1C[C@H]2[C@]34/C=C/C1=COC[C@@H]2[C@H]1C[C@H]1c3c(c4ccccc4n3C)C[C@@H]2N1C`, the TGI in the assay on MDA-MB-231 breast came out at 8.93 µM; in the assay on NCI/ADR-RES ovarian it was 6.69 µM; in the assay with HCC-2998 colon, 1.31 µM; with COLO 205 colon, 6.62 µM; in the assay with RXF 393 renal, 7.9 µM; with MDA-N, 5.41 µM.

With `CCCCCCc1ccc(O)cc1O`, the TGI in the assay on NCI/ADR-RES ovarian is greater than 100 µM; with XF 498 CNS it was greater than 100 µM; in the assay on HCC-2998 colon it was greater than 100 µM; in the assay with SNB-78 CNS, greater than 100 µM; with HOP-18 NSCLC, greater than 92.5 µM; in the assay with COLO 205 colon, greater than 100 µM. Moreover, the TGI was greater than 100 µM in the assay with RXF 393 renal, greater than 100 µM with DMS 273 small cell lung, greater than 100 µM in the assay with HL-60(TB) leukemia and 98 µM with M19-MEL melanoma.

In the case of `NC(=O)c1nnc2cc(F)c(F)cc2c1N`, the TGI with MDA-MB-231 breast, in the assay with NCI/ADR-RES ovarian, in the assay on HCC-2998 colon, in the assay on COLO 205 colon, in the assay with HL-60(TB) leukemia and in the assay on MDA-N was greater than 100 µM in each case. Further, in the assay on 786-0 renal, the TGI is greater than 100 µM.

As for `CN[C@@H]1[C@H](O)[C@H](NC)[C@H]2O[C@@]3(O)C(=O)C[C@@H](C)O[C@H]3O[C@@H]2[C@H]1O`, the TGI with MDA-MB-231 breast, in the assay on NCI/ADR-RES ovarian, in the assay on HCC-2998 colon, with COLO 205 colon, in the assay with RXF 393 renal and in the assay with HL-60(TB) leukemia was greater than 100 µM in each case. Moreover, the TGI in the assay on MDA-N is greater than 100 µM.

`COc1cc2c(cc1O)CCN[C@@]21CS[C@H]2c3c(OC(C)=O)c(C)c4c(c3C(COC1=O)N1C2C2c3c(cc(C)c(OC)c3O)CC([C@@H]1O)N2C)OCO4` (some centres not stated): the GI50 was 0.00325 µM in the assay on MDA-MB-231 breast, 0.0112 µM with NCI/ADR-RES ovarian, less than 1 pM in the assay with HL-60(TB) leukemia and 0.00247 µM with MDA-N. For the same molecule, the TGI in the assay with MDA-MB-231 breast was 0.0357 µM; in the assay with LXFL 529 NSCLC it was 4.31e-05 µM; in the assay with XF 498 CNS, less than 1e-06 µM; with DMS 273 small cell lung, less than 1e-06 µM; in the assay with HL-60(TB) leukemia, less than 1e-06 µM; in the assay with MDA-N, 0.0108 µM. The molecule also yielded a TGI with M19-MEL melanoma of less than 1e-06 µM.

Turning to `C=C(/C=C/C=C(/CCC=C(C)C)COC(C)=O)[C@@H]1CC[C@]2([C@H](CCCO)/C(=C(/C)C=O)CC[C@]2(C)O)[C@@H]1O`, the TGI in the assay with DMS 114 small cell lung was found to be 28.8 µM; in the assay on HCC-2998 colon it was 20.3 µM; in the assay with HOP-18 NSCLC, 23.7 µM; in the assay on COLO 205 colon it was 7.06 µM; in the assay on RXF 393 renal, 33.1 µM; with DMS 273 small cell lung it was 21.1 µM. For the same molecule, the TGI in the assay with HL-60(TB) leukemia stood at 11.1 µM; with M19-MEL melanoma, 33.3 µM.
